Experimental data from patent publication US20200147149A1, “COMPOSITIONS AND METHODS FOR THE MODULATION OF GUT SENSORY CELLS” (Duke University, priority 2017, published 2020).
“Also recorded” adds a separate entry of the source.

How the values were obtained:
vagus nerve = experiment: Vagus nerve recording during intraluminal (duodenal) nutrient or CCK perfusion; assay type: in vivo, mouse; settings: D-glucose 150 mM perfused intraluminally, wild-type mice
Experimental: Wild-type control (n=5-9), CckCRE_ChR2-tdTomato (n=6), CckCRE_Halorhodopsin-YFP (n=5), and Vglut1CRE_ChR2-YFP (n=6) mice were used for vagal recordings. Mice were anesthetized with 3 mg/g-mouse urethane 1 hour before surgery then with 0.5-1% isoflurane. A section of neck skin was removed between the jaw and clavicle. The thyroid was reflected bilaterally, and the carotid bundle was exposed using coarse dissection. The carotid nerve was separated from the vagus nerve using a curved blunt probe. Two platinum iridium wires (0.001″ diameter, PTFE coated, 10% Ir 90% Pt; Medwire by Sigmund Cohn Corp) were looped around the vagus nerve for recording. Mineral oil was used to insulate the vagus nerve from surrounding tissue. The small intestine was exposed by removing a section of skin and peritoneum. A 20 gauge gavage needle was surgically inserted through the stomach wall and into the duodenum. The gavage needle was sutured in place beyond the pyloric sphincter. Saline and stimulant tubes were connected to the gavage needle. For optogenetic experiments, a fiber optic cable (FT020, ThorLabs) was threaded through the gavage needle into the lumen of the duodenum. A perfusion exit incision was made 10 cm distal to the pyloric sphincter. During each recording, PBS was constantly perfused through the duodenum using a peristaltic pump (Cole-Parmer) at the lowest setting for a flow rate of ˜400 uL PBS per minute. Stimulation conditions were applied after recording 2 minutes of baseline activity. During whole nutrient stimulation conditions, PBS perfusion was continuous and 200 μL of ENSURE® was perfused through the second tube for 1 minute using a syringe pump. […] During CCK stimulation conditions, PBS perfusion was continuous, and 200 μL of 2.9 μM CCK octapeptide-sulfated (BaChem) was perfused through the second tube for 1 minute using a syringe pump (Fusion 200, Chemyx) for a final concentration of ˜870 nM CCK in PBS (10 μg/kg dose). […] Final stimulant concentrations were determined using the ratio of dilution and confirmed by osmolarity testing (Model 3320 Osmometer, Advanced Instruments Inc.). During 473 nm laser stimulation conditions, PBS perfusion was continuous, and the laser was pulsed for 1 minute at 40 Hz, 4 volts peak voltage, 20% duty cycle (473 nm, 80 mW laser, RGBlase).
Extracellular voltage was recorded from a pair of platinum iridium wires as described above. A differential amplifier and bandpass filter (1000× gain, 300 Hz-5 kHz bandpass filter; A-M Systems LLC) was used and the signal was processed using a data acquisition board and software (20 kHz sampling rate; Signal Express, National Instruments Corp). The raw data was analyzed using a spike sorting algorithm (MATLAB by MathWorks). Spikes were detected using simple threshold detection based on RMS noise. The firing rate was calculated using a Gaussian kernel smoothing algorithm (200-ms time scale).
Stimulation response was quantified as the maximum firing rate after stimulation (stimulant conditions) or during recording (baseline). Each trial serves as its own control by normalizing the maximum firing rate to the average baseline firing rate (defined as the first two minutes of recording, prior to stimulation onset). Mice were excluded from analysis if no sucrose response was present throughout recording. Maximum firing rate was analyzed across genotype, stimulation condition, and their interaction term by ANOVA, followed by HSD post hoc testing (iMP by SAS Institute).

[1] = test system: intestinal CCK enteroendocrine cells; experiment: Calcium imaging (GCaMP6s) of enteroendocrine cells in CckCRE_tdTomato intestinal organoids; assay type: cell-based, mouse; settings: n=3
Experimental: For neurons, Phox2bCRE_GCaMP6s (n=3) nodose neurons were dissociated and plated. Nodose ganglia were dissected and digested in Liberase (Roche, 5401054001). Neurons were washed and filtered through a 70 μm cell strainer, then plated on 12 mm coverslips and placed in an incubator overnight. Cells were imaged 1-2 days later. Coverslips were placed in the recording chamber of a Zeiss Examiner Z1 and imaged with a Hamamatsu camera (Orca-flash4.0; C11440) using the Zeiss ZEN software package. For enteroendocrine cells, CckCRE_tdTomato organoids with transduced with ΔG-rabies-GCaMP6s. Organoids were imaged using multi photon microscopy 3-4 days after transduction. Imaging buffer (in mM: 140 NaCl, 5 KCl, 2 CaCl2, 2 MgCl2, 10 HEPES) was continuously perfused over the coverslips. […] Images were analyzed with Fiji ([…]), and cell traces were plotted with Matlab.

iGluSnFR-HEK cells = iGluSnFR-HEK cells cultured alone, multiphoton imaging; assay type: cell-based; settings: D-glucose 40 mM
Experimental: HEK 293/17 cells (ATCC CRL-11268) were maintained in DMEM (Gibco 11965) supplemented with 10% FBS (Corning 35-010-CV), Glutamax, and non-essential amino acids (both Gibco). Cells were transfected with 1 ug plasmid pCMV(MinDis) iGluSnFR (Addgene 41732) using 1 ul Lipofectamine 2000 in Optimem (Gibco) in 24-well plates.
The 5.2 Kb iGluSnFR (pCMV(MinDis).iGluSnFR was a gift from Loren Looger; Addgene plasmid #41732) was moved to the zeocin resistant backbone of Addgene #51694 (DRH296: FCK-Optopatch2 was a gift from Adam Cohen) as a NdeI+XhoI fragment. The resulting plasmid (pMEK8) was transfected into HEK 293/17 cells (ATCC CRL-11268) using 1 μl Lipofectamine 2000/ug DNA. Cells were maintained in DMEM (Gibco 11965) supplemented with 10% FBS (Corning 35-010-CV), Glutamax, non-essential amino acids (both Gibco) and 3 μl/ml zeocin ([…], Invitrogen).
CckCRE_tdTomato enteroendocrine cells were isolated as described above. Isolated cells were mixed with iGluSnFR-HEK cells at a ratio of 10:1, then plated on 1% Matrigel coated coverslips. Control iGluSnFR-HEK cells were plated alone. Cells were incubated for 12-18 hours before imaging. Coverslips were imaged using a multiphoton microscopy system (Bruker Ultima IV with a Chameleon Vision II tunable laser). Imaging frames were captured at 1.876 fps, using 920 nm light. Imaging series were analyzed using Fiji (ImageJ), and cell traces were plotted with Excel.

O=C[C@H](O)[C@@H](O)[C@H](O)[C@H](O)CO [D-glucose]
vagal firing rate (vagus nerve): had the same effect; also recorded: stimulate
magnitude of the sugar response as percent fluorescence of the KCl response ([1]; 20 mM D-glucose, 40 mM KCl control): 56.0±20%
calcium transients, percent of the KCl control response ([1]; D-glucose (10 mM) as printed): 56.0%±20.0
fluorescence response of iGluSnFR-HEK cells cultured alone (iGluSnFR-HEK cells): did not respond
fluorescence response of iGluSnFR-HEK cells cultured alone (iGluSnFR-HEK cells; listed as Dglucose): not
